± gives the standard deviation of the averaged measurements.
compound: Cc1nc(Nc2n[nH]c3c2CN(C(=O)N[C@H](CN(C)C)c2ccccc2)C3(C)C)c2sccc2n1; assay: surviving fraction relative to DMSO-only wells; higher = less growth inhibition; conditions: 0.5 nM; exposure time: 5 days
Method in brief: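 Inhibitors were tested at 0.5, 1, 5, 10, 50, 100, 500 and 1000 nM, applied continuously for five days beginning 24 hours after log-phase tumour cells were seeded at 250–500 per well in 384-well plates. CellTiter-Glo luminescence served as the viability measure, expressed as surviving fraction against the median of DMSO-only wells. Each line, screened three times, was kept only with replicate Pearson r >0.7 and median Z' >0.3.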

Test System | surviving fraction
SUM149 BREAST | 0.863 ± 0.011
SUM149.B1*.S BREAST | 1.05 ± 0.021
SUM159 BREAST | 1.13 ± 0.2
SYO1 SYNOVIAL | 0.65 ± 0.017
T47D BREAST | 1.16 ± 0.034
U2OS BONE | 0.974 ± 0.038
VCAP PROSTATE | 0.665 ± 0.11
VP229 BREAST | 1.23 ± 0.085
YAMATO SYNOVIAL | 0.784 ± 0.03
ZR751 BREAST | 0.872 ± 0.058

same assay, conditions: 1 nM; exposure time: 5 days

Test System | surviving fraction
MDAMB453 BREAST | 1.03 ± 0.037
MDAMB468 BREAST | 0.914 ± 0.085
MFM223 BREAST | 1.03 ± 0.049
MG63 BONE | 0.805 ± 0.025
MHM BONE | 0.935 ± 0.016
NCIH441 LUNG | 0.938 ± 0.1
NOS1 BONE | 0.847 ± 0.078
NY BONE | 0.725 ± 0.025
OS25HAL BONE | 0.954 ± 0.024
OSHN BONE | 1.01 ± 0.019
PCI30 HEADNECK | 0.823 ± 0.028
RDES SOFT TISSUE | 0.577 ± 0.1
S68 BREAST | 0.77 ± 0.013
SAOS2 BONE | 0.645 ± 0.062
SCC36 HEADNECK | 0.681 ± 0.052
SCC47 HEADNECK | 1.08 ± 0.033
SCC90 HEADNECK | 0.893 ± 0.19
SG27 HEADNECK | 0.931 ± 0.029
SG28 HEADNECK | 1 ± 0.056

Test System | surviving fraction
SG31 HEADNECK | 1.01 ± 0.088
SG32 HEADNECK | 0.756 ± 0.027
SG43 HEADNECK | 1.11 ± 0.22
SIHA CERVIX | 0.689 ± 0.052
SJSA1 BONE | 0.901 ± 0.011
SKBR3 BREAST | 0.834 ± 0.079
SNU475 LIVER | 0.918 ± 0.067
SUM44 BREAST | 1.05 ± 0.065
SUM149 BREAST | 1.01 ± 0.02
SUM149.B1*.S BREAST | 1.04 ± 0.013
SUM159 BREAST | 1.15 ± 0.2
SYO1 SYNOVIAL | 0.486 ± 0.01
T47D BREAST | 1.12 ± 0.025
U2OS BONE | 0.901 ± 0.058
VCAP PROSTATE | 0.496 ± 0.006
VP229 BREAST | 1.15 ± 0.18
YAMATO SYNOVIAL | 1.19 ± 0.074
ZR751 BREAST | 0.818 ± 0.052

same assay, conditions: 5 nM; exposure time: 5 days

Test System | surviving fraction
MDAMB453 BREAST | 0.648 ± 0.045
MDAMB468 BREAST | 0.213 ± 0.02
MFM223 BREAST | 0.827 ± 0.015
MG63 BONE | 0.468 ± 0.0074
MHM BONE | 0.924 ± 0.034
NCIH441 LUNG | 0.637 ± 0.057
NOS1 BONE | 0.695 ± 0.051
NY BONE | 0.527 ± 0.016
OS25HAL BONE | 0.597 ± 0.036
OSHN BONE | 0.4963 ± 0.004
PCI30 HEADNECK | 0.579 ± 0.015
RDES SOFT TISSUE | 1.16 ± 0.32
S68 BREAST | 0.481 ± 0.066
SAOS2 BONE | 0.509 ± 0.016
SCC36 HEADNECK | 0.258 ± 0.011
SCC47 HEADNECK | 0.815 ± 0.029
SCC90 HEADNECK | 0.516 ± 0.016
SG27 HEADNECK | 0.64 ± 0.069
SG28 HEADNECK | 0.818 ± 0.009

Test System | surviving fraction
SG31 HEADNECK | 0.671 ± 0.076
SG32 HEADNECK | 0.363 ± 0.013
SG43 HEADNECK | 0.921 ± 0.13
SIHA CERVIX | 0.555 ± 0.023
SJSA1 BONE | 0.747 ± 0.018
SKBR3 BREAST | 0.49 ± 0.027
SNU475 LIVER | 0.724 ± 0.06
SUM44 BREAST | 1 ± 0.039
SUM149 BREAST | 0.178 ± 0.014
SUM149.B1*.S BREAST | 0.473 ± 0.02
SUM159 BREAST | 1.15 ± 0.21
SYO1 SYNOVIAL | 0.269 ± 0.023
T47D BREAST | 0.845 ± 0.033
U2OS BONE | 0.631 ± 0.016
VCAP PROSTATE | 0.428 ± 0.025
VP229 BREAST | 0.684 ± 0.099
YAMATO SYNOVIAL | 0.432 ± 0.036
ZR751 BREAST | 0.575 ± 0.056

same assay, conditions: 10 nM; exposure time: 5 days

Test System | surviving fraction
MDAMB453 BREAST | 0.598 ± 0.018
MDAMB468 BREAST | 0.19 ± 0.011
MFM223 BREAST | 0.637 ± 0.051
MG63 BONE | 0.336 ± 0.024
MHM BONE | 0.906 ± 0.015
NCIH441 LUNG | 0.632 ± 0.0076
NOS1 BONE | 0.657 ± 0.073
NY BONE | 0.467 ± 0.031
OS25HAL BONE | 0.367 ± 0.029
OSHN BONE | 0.361 ± 0.026
PCI30 HEADNECK | 0.599 ± 0.038
RDES SOFT TISSUE | 1.02 ± 0.14
S68 BREAST | 0.321 ± 0.04
SAOS2 BONE | 0.4777 ± 0.004
SCC36 HEADNECK | 0.188 ± 0.019
SCC47 HEADNECK | 0.664 ± 0.074
SCC90 HEADNECK | 0.523 ± 0.027
SG27 HEADNECK | 0.612 ± 0.066
SG28 HEADNECK | 0.716 ± 0.039

Test System | surviving fraction
SG31 HEADNECK | 0.909 ± 0.17
SG32 HEADNECK | 0.247 ± 0.017
SG43 HEADNECK | 0.784 ± 0.34
SIHA CERVIX | 0.487 ± 0.026
SJSA1 BONE | 0.696 ± 0.057
SKBR3 BREAST | 0.498 ± 0.026
SNU475 LIVER | 0.633 ± 0.032
SUM44 BREAST | 0.972 ± 0.041
SUM149 BREAST | 0.365 ± 0.037
SUM149.B1*.S BREAST | 0.817 ± 0.017
SUM159 BREAST | 1.1 ± 0.18
SYO1 SYNOVIAL | 0.214 ± 0.0035
T47D BREAST | 0.879 ± 0.023
U2OS BONE | 0.453 ± 0.025
VCAP PROSTATE | 0.398 ± 0.025
VP229 BREAST | 0.597 ± 0.089
YAMATO SYNOVIAL | 1.35 ± 0.091
ZR751 BREAST | 0.515 ± 0.0069

same assay, conditions: 50 nM; exposure time: 5 days

Test System | surviving fraction
MDAMB453 BREAST | 0.416 ± 0.038
MDAMB468 BREAST | 0.096 ± 0.004
MFM223 BREAST | 0.474 ± 0.021
MG63 BONE | 0.257 ± 0.016
MHM BONE | 0.692 ± 0.03
NCIH441 LUNG | 0.463 ± 0.026
NOS1 BONE | 0.589 ± 0.062
NY BONE | 0.447 ± 0.014
OS25HAL BONE | 0.281 ± 0.007
OSHN BONE | 0.31 ± 0.017
PCI30 HEADNECK | 0.538 ± 0.022
RDES SOFT TISSUE | 0.756 ± 0.037
S68 BREAST | 0.288 ± 0.081

Source: the supplement of paper PMC6045584
